# How the values were obtained:
# [1] = system: TNF-α production in LPS-induced BV2 microglia cell lines; experiment: TNF-α assessment in LPS-induced BV2 microglia (ELISA); format: cell-based
# Description: TNF-α signalling exacerbates both Aβ and tau pathologies in vivo, according to several lines of evidence based on genetic and pharmacological modifications.
# (§1) LPS was the used positive control.
# For TNF-α, cell lysate was used to assess TNF-α using the MyBioSource ELISA kit (Catalog No: MBS2502004). This assay employs the quantitative sandwich enzyme immunoassay technique. Briefly, 100 µl of the samples were added to each well. Incubate for 90 min at 37 °C, and immediately add 100 μl of Biotinylated Detection Ab working solution to each well. Incubate for 1 h at 37 °C, then add 350 µl of wash buffer to each well, 100 μl of HRP Conjugate working solution to each well was added, incubated for 30 min at 37 °C. Add 90 μl of Substrate Reagent to each well. Incubate for about 15 min at 37 °C. Then, 50 μl of Stop Solution was added to each well. Finally, the optical density of each well was detected at 450 nm.
# Aβ1–42 = molecular target: T1, Aβ1–42 (Homo sapiens, UniProt P05067); experiment: Inhibition of Aβ1-42 self-induced aggregation (BioVision ligand screening kit); format: biochemical; conditions: µM
# T1 construct: purchased BioVision K570-100
# T1 sequence (P05067 672-713 limits assumed): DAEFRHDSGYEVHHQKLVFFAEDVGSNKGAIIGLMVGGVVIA
# From the text: Screening Aβ42 ligands that could prevent aggregation is critical for developing potential therapeutic treatments. In BioVision’s Beta-Amyloid 1–42 (Aβ42) Ligand Screening kit, a dye binds to the beta-sheets of an aggregated amyloid peptide resulting in an intense fluorescent product at wave length 450 nm using a BIOLINE ELISA reader. In the presence of an Aβ42 ligand, this reaction is impeded/abolished resulting in a decrease or total loss of fluorescence. This assay is useful in screening Aβ42 ligands for developing potential therapeutic agents against AD[42]. The assessment was performed according to BioVision’s Beta-Amyloid 1–42 (Aβ42) Ligand Screening Kit Catalog No. K570-100.
# [2] = system: IL-1β production in LPS-induced BV2 microglia cell lines; experiment: IL-1β assessment in LPS-induced BV2 microglia (ELISA); format: cell-based
# Description: IL-1β is a pro-inflammatory cytokines involved in the pathogenesis of AD[40]. So, activity of 5b and 6b derivatives were evaluated against LPS-induced BV2 microglia cell lines production of IL-1β. They induced a decrease in IL-1β level to about 5% and 48%, sequentially, as compared to a positive control (Figure 5).
# as §1
# For IL-1β, this assay employs the quantitative sandwich enzyme immunoassay technique. A monoclonal antibody specific for human IL-1β has been pre-coated onto a micro plate. Standards and samples are piped into the wells and any IL-1β present is bound by the immobilised antibody. After washing away any unbound substances, an enzyme-linked polyclonal antibody specific for human IL-1β is added to the wells. Following a wash to remove any unbound antibody-enzyme reagent, a substrate solution is added to the wells and colour develops in proportion to the amount of IL-1β bound in the initial step. The colour development is stopped and the intensity of the colour is measured, the method of assessment was performed as instructed in the IL-1 β R&D system ELISA kit (catalog No. DLB50).
# [3] = system: COX-2 production in LPS-induced BV2 microglia cell lines; experiment: COX-2 assessment in LPS-induced BV2 microglia (ELISA); format: cell-based
# Description: Previously, it was reported that COX-2 is a key mediator in the inflammatory response and may play a role in neurodegeneration.
# as §1
# For COX-2, all reagents, samples, and standards were prepared as Kit instructions, then 100 μl of standard or sample were added to each well, incubated 2.5 h at room temperature. Then 100 μl of prepared biotin antibody was added to each well, incubated an hour at room temperature. After that 100 μl of prepared Streptavidin solution was added. Then it was incubated for 45 min at room temperature. An aliquot of 100 μl TMB One-Step Substrate Reagent was added to each well, incubated 30 min at room temperature, 50 μL stop solution added to each well. Finally, the optical density was read at 450 nm immediately.
# AChE = AChE (Homo sapiens, UniProt P22303); experiment: biochemical; conditions: modified Ellman; read-out: AChE inhibitory activity IC50
# Sequence of AChE (P22303 32-614): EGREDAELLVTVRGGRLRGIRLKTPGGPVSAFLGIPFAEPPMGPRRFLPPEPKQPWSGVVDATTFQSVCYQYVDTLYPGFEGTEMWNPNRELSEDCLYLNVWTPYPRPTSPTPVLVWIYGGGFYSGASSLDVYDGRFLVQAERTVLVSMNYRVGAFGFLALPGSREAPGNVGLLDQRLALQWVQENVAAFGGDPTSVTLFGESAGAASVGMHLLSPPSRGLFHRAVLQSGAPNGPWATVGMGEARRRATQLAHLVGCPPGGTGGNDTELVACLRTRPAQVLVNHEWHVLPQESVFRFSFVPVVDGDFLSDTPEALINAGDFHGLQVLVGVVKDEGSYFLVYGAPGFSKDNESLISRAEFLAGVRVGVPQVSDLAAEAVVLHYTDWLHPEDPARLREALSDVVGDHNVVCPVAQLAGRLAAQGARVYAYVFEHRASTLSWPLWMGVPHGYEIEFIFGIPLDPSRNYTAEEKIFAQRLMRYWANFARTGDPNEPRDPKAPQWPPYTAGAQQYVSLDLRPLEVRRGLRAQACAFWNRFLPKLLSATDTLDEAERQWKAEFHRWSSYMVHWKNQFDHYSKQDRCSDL
# Description: (§2) The effects of twenty synthetic compounds were evaluated for AChE and BuChE inhibition using the modified method of Ellman et al.[33] […] AChE and BuChE are found in the brains of mammals. Genetically, structurally, and kinetically, the two kinds vary. In the human brain, BuChE is found in glial cells and neurons as well as in plaques and tangles in AD patients. […] BuChE may replace AChE by hydrolysing brain acetylcholine in some conditions, such as in mice nullizygote for AChE or in AD patients in advanced stages of the disease[34]^,[35].
# BuChE = BuChE (Homo sapiens, UniProt P06276); experiment: biochemical; conditions: modified Ellman; read-out: BuChE inhibitory activity IC50
# Sequence of BuChE (P06276 29-602): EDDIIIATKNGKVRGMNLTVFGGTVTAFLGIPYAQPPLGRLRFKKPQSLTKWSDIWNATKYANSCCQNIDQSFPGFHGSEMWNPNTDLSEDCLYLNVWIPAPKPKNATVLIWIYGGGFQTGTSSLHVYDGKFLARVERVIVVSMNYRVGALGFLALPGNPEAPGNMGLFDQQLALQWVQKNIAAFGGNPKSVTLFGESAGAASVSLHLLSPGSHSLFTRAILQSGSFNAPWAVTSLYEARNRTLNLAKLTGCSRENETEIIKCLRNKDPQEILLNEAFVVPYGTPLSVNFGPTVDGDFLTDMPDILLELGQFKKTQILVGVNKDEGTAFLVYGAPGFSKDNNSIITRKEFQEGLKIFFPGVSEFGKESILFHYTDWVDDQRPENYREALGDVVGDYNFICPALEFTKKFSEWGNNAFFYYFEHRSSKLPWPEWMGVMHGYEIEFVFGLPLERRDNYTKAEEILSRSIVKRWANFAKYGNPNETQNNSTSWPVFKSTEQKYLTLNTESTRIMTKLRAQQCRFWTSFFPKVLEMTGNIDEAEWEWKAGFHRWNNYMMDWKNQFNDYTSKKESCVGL
# Description: as §2
# [4] = system: NO production in LPS-induced BV2 microglia cell lines; experiment: Nitric oxide (NO) assessment in LPS-induced BV2 microglia; format: cell-based; conditions: positive control 6.42 pg/mL
# Description: In AD, increased production of vascular NO, a highly neurotoxic mediator in the CNS, may contribute to the vulnerability of neurons to injury and cell death.
# as §1
# NO plays an important role in neurotransmission, vascular regulation, immune response, and apoptosis. NO is rapidly oxidised to nitrite and nitrate which are used to quantitate NO. NO was estimated using the Abcam ELISA kit (catalog No. ab65328). Briefly, enzyme was added to cell lysate, followed with cofactor and incubated at room temperature for 60 min, after that Griess reagent was added and incubated at room temperature for 10 min., finally optical density was measured at 540 nm.
# Microglia cell Line, BV-2, human neuroblastoma (SH-SY5Y), and normal hepatic (THLE2) cells were obtained from American Type Culture Collection, cells were cultured using DMEM (Invitrogen/Life Technologies, Carlsbad, CA) supplemented with 10% FBS (Hyclone), 10 µg/mL of insulin (Sigma, St. Louis, MO), and 1% penicillin-streptomycin. All of the other chemicals and reagents were from Sigma, or Invitrogen. Plate cells (cells density 1.2 − 1.8 × 10,000 cells/well) in a volume of 100 µL complete growth medium + 100 µL of the tested compounds per well in a 96-well plate for 24 h before the MTT assay.
# IL-1β production = system: IL-1β production; design: method as in PMID 21295616; conditions: read-out: suppression of IL-1β production IC50; cited from earlier work
Structure (SMILES),"decrease in TNF-α levels to, compared to positive control [1]",IC50 (Aβ1–42),"decrease in IL-1β level to about, as compared to a positive control [2]",decrease in COX-2 levels as compared to a positive control [3],IC50 (AChE),IC50 (BuChE),NO level [4],IC50 (IL-1β production)
"CS(=O)(=O)n1cc(/C=C/C(=O)c2ccc(NC(=O)Cc3ccc(Cl)cc3)cc2)c2ccccc21 [Compound 5b, (E)-2–(4-Chlorophenyl)-N-{4-[3–(1-(methylsulfonyl)-1H-indol-3-yl)acryloyl]phenyl}acetamide]",53%,2.5 µM,about 5%,about 20%,27.5 nM,36.9 nM,4.89 pg/mL,
Cc1cc(-c2ccccc2)nnc1C(=O)N1CCN(c2ncccn2)CC1 [GIBH-130],,,,,,,,3.4 nM
"CS(=O)(=O)n1cc(/C=C/C(=O)c2ccc(NC(=O)CN3CCC(Cc4ccccc4)CC3)cc2)c2ccccc21 [Compound 6b, (E)-2–(4-Benzylpiperidin-1-yl)-N-{4-[3–(1-(methylsulfonyl)-1H-indol-3-yl)acryloyl]phenyl}acetamide]",67%,4.94 µM,~48%,~14%,49.3 nM,80.4 nM,4.46 pg/mL,
